Source: article PMC5503785 (Journal of clinical pharmacology, 2017)
Read-outs that look alike come from different tables or passages of the source.

Key:
[1] = assay type: in vivo, human; conditions: for ω CLR/F (L·h^−1): between-subject variability; for increase in veliparib exposure: covariate model
PARP [2] = conditions: cited from earlier work
PARP [3] = test system: PARP
PARP [4] = conditions: phase 0 study, single dose of veliparib; cited from earlier work
[5] = fixed in model; fraction renally excreted; cited from earlier work
CYP2D6 = conditions: in vitro study; cited from earlier work
[6] = PBPK simulations, cited from earlier work
[7] = cited from earlier work
[8] = bootstrap median, 250 replicates
[9] = analysis by Li et al, one-compartment model
[10] = population PK analysis by Salem et al, one-compartment model
[11] = previously reported, based on NCA

Structure (SMILES): CC1(c2nc3c(C(N)=O)cccc3[nH]2)CCC(=O)N1 (centres unmarked) [M8]
- CLmet [1, 8]: 22.7 L/h
- Qmet [1, 8]: 29.0 L/h
- Vc_met [1, 8]: 23.5 L
- Vp_met [1, 8]: 51.3 L
- CLmet ([1]; final model estimate): 22.8 L/h
- Qmet ([1]; final model estimate): 29.0 L/h
- Vc_met ([1]; final model estimate, metabolite central volume): 23.6 L
- Vp_met ([1]; final model estimate, metabolite peripheral volume): 51.4 L
- potency compared to veliparib (fold less potent) (PARP [2]): approximately 5 fold

Structure (SMILES): C[C@]1(c2nc3c(C(N)=O)cccc3[nH]2)CCCN1 [veliparib, 2-[(R)-2-methylpyrrolidin-2-yl]-1H-benzimidazole-4-carboxamide]
- expected "true" fraction converted to M8 ([1]; 30% non-renal elimination * 72% CYP2D6 share): 22%
- accumulation on chronic dosing ([1]; NCA approach, within dose range tested (50 to 500 mg b.i.d.)): Negligible accumulation
- ω CLR/F (L·h^−1) ([1]; bootstrap median): 34.7%
- ω CLR/F (L·h^−1) ([1]; final model estimate): 34.7%
- CL/F [1, 8]: 17.3 L/h
- Ka [1, 8]: 2.02 h⁻¹
- LBM effect on Vc/F, power_LBM [1, 8]: 1.21
- Q/F [1, 8]: 17.9 L/h
- Vc/F [1, 8]: 99.1 L
- Vp/F [1, 8]: 47.5 L
- tlag [1, 8]: 0.270 h
- increase in veliparib exposure ([1]; mild renal function impairment (~25% decrease in CLCR)): ~ 10%
- increase in veliparib exposure ([1]; moderate renal function impairment (~50% decrease in CLCR)): ~ 20%
- dose proportionality ([1]; dose level from 50 to 500 mg): supported
- Q/F ([1]; final model estimate): 17.9 L/h
- tlag ([1]; final model estimate): 0.272 h
- LBM effect on Vc/F, power_LBM ([1]; final model estimate, covariate exponent): 1.21
- Vc/F (central volume of distribution) ([1]; final model estimate, typical subject LBM 48 kg): 99.2 L
- CL/F (total clearance, CLR/F + CLNR/F) ([1]; final model estimate, typical subject LBM 48 kg, CLCR 95 mL/min): 17.3 L/h
- Ka ([1]; final population PK model estimate, oral veliparib): 2.02 h⁻¹
- fm ([1]; fixed in model, fraction metabolized to M8 assumed as 1−frenal): 0.3 (fix)
- Vd/F ([1]; human, plasma, oral, Vd/F (=Vc/F+ Vp/F), final model, standardized to 48 kg LBM and 95 mL/min CLCR): 147 L
- contribution of CYP2D6 metabolism to veliparib total clearance ([1]; worked out from non-renal fraction and CYP2D6 share): ~ 22%
- Inhibition of PAR compared with pre-dose baseline (PARP [3]; 50/50 mg dose level b.i.d., PBMC): ~ 50%
- Inhibition of PARP compared with pre-dose baseline (PARP [3]; 500/500 mg dose level b.i.d., PBMC): ~ 70%
- IC50 for PAR reduction (Emax model, veliparib plasma concentration as driver) (PARP [3]; PBMC, estimated with low precision): 0.03 µg/mL
- inhibition of PAR levels in PBMCs (PARP [3]; dose levels ranging from 50 to 500 mg): At least 50%
- inhibition of PAR levels in PBMC (PARP [4]): Significant inhibition
- frenal [5]: 0.7 (fix)
- share of overall veliparib metabolism accounted for by CYP2D6 (CYP2D6): ~ 72%
- higher exposure versus extensive metabolizers ([6]; CYP2D6 poor metabolizers (PM)): ~ 20%
- lower exposure versus extensive metabolizers ([6]; CYP2D6 ultra-extensive metabolizers (UM)): ~ 20%
- CL/F [7, 9]: 13.3 L/h
- Vd/F [7, 9]: 126 L
- CL/F [7, 10]: 20.9 L/h
- Vd/F [7, 10]: 173 L
- CL/F [7, 11]: 18 L/h
- Vd/F [7, 11]: 145 L
